Experimental findings from ChEMBL document CHEMBL3351888, “Synthesis and Pharmacological Evaluation of DHβE Analogues as Neuronal Nicotinic Acetylcholine Receptor Antagonists” (ACS Med Chem Lett, 2014) are described below.

Assay [1] has as its target T1, Neuronal acetylcholine receptor; alpha4/beta2 (Rattus norvegicus, UniProt P09483+P12390). Nature of the assay: Inhibition of rat membrane alpha4beta2 nAChR by [3H]cytisine binding assay.
Assay [2] concerns the target Nicotinic acetylcholine receptor alpha-4/beta-2 (Mus musculus, UniProt Q8R493+Q9ERK7). As to the kind of experiment: Antagonist activity at mouse alpha4beta2 nAChR transfected in HEK293 cells by FLIPR membrane potential blue (FMP) assay. In kind it is cell-based.
The target of assay [3] is T1, Neuronal acetylcholine receptor; alpha4/beta2. As to the kind of experiment: Displacement of [3H]epibatidine from rat alpha4beta2 nAChR transfected in HEK293 cells after 4 hrs by scintillation count analysis. Format: cell-based. In general terms: In a radioligand displacement assay an active substance lowers the binding of a labelled ligand.
For assay [4], the target named is T2, Neuronal acetylcholine receptor; alpha3/beta4 (Rattus norvegicus, UniProt P04757+P12392). Nature of the assay: Displacement of [3H]epibatidine from rat alpha3beta4 nAChR transfected in HEK293 cells after 4 hrs by scintillation count analysis. In kind it is cell-based.
The target in assay [5] is Neuronal acetylcholine receptor; alpha4/beta4 (Rattus norvegicus, UniProt P09483+P12392). Nature of the assay: Displacement of [3H]epibatidine from rat alpha4beta4 nAChR transfected in HEK293 cells after 4 hrs by scintillation count analysis. Format: cell-based.
Assay [6] concerns the target T2, Neuronal acetylcholine receptor; alpha3/beta4. Nature of the assay: Antagonist activity at rat alpha3beta4 nAChR transfected in HEK293 cells by FLIPR membrane potential blue (FMP) assay. Format: cell-based.

T2 sequence (P04757 whole entry): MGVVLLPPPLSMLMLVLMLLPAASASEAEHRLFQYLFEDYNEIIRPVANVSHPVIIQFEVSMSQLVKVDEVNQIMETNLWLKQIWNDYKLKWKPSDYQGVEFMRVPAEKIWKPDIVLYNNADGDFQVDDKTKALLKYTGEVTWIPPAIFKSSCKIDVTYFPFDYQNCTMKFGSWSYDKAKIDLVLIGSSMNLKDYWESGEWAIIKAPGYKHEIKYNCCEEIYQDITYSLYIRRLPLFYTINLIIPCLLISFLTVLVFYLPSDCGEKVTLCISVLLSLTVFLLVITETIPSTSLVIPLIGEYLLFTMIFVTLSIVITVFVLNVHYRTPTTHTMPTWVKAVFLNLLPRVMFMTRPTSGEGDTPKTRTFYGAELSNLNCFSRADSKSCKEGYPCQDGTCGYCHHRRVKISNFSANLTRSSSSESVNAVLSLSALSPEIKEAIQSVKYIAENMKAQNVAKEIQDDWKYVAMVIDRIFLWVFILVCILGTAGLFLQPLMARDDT
T2 sequence (P12392 whole entry): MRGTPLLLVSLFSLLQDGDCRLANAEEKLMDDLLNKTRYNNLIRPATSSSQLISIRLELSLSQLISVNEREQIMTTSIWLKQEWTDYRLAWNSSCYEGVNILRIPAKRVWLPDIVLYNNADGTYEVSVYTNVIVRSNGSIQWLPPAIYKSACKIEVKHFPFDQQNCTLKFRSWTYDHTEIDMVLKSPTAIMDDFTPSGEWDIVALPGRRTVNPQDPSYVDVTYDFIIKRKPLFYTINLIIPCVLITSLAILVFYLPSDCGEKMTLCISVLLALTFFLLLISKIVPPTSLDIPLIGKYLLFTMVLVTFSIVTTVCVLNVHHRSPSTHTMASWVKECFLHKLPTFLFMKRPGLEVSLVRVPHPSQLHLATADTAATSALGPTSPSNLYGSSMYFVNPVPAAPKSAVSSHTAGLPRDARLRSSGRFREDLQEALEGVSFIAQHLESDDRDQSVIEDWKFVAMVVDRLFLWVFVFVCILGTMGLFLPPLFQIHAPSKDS
Chain of Nicotinic acetylcholine receptor alpha-4/beta-2 (Q9ERK7 whole entry): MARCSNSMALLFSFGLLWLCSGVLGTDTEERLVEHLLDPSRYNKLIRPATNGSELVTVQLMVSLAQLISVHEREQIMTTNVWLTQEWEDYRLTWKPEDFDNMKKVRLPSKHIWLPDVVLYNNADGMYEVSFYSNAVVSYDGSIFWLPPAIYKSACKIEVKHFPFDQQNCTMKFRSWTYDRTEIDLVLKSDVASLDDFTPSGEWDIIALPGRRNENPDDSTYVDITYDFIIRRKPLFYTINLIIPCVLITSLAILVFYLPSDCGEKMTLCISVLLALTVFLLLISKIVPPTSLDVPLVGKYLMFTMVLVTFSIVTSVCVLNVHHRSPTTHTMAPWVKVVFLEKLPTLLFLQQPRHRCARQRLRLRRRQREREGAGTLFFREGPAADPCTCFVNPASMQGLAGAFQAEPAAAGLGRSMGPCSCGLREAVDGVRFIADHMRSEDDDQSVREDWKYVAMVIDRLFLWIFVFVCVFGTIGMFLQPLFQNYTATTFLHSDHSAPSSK
Chain of Nicotinic acetylcholine receptor alpha-4/beta-2 (Q8R493 whole entry): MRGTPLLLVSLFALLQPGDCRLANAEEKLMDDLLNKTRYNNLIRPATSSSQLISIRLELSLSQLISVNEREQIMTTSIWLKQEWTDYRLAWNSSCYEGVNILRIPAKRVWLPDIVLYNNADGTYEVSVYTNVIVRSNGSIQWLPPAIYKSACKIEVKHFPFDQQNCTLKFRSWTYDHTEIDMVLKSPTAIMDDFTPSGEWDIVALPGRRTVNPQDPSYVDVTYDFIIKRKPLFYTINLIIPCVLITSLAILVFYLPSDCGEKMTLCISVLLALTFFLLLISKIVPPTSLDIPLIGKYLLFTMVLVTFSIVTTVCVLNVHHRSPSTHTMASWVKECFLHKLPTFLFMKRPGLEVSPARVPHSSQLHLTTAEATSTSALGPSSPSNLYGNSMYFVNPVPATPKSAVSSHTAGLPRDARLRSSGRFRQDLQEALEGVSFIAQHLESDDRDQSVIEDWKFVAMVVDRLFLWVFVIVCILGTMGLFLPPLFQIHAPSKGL
Chain of Neuronal acetylcholine receptor; alpha4/beta4 (P09483 whole entry): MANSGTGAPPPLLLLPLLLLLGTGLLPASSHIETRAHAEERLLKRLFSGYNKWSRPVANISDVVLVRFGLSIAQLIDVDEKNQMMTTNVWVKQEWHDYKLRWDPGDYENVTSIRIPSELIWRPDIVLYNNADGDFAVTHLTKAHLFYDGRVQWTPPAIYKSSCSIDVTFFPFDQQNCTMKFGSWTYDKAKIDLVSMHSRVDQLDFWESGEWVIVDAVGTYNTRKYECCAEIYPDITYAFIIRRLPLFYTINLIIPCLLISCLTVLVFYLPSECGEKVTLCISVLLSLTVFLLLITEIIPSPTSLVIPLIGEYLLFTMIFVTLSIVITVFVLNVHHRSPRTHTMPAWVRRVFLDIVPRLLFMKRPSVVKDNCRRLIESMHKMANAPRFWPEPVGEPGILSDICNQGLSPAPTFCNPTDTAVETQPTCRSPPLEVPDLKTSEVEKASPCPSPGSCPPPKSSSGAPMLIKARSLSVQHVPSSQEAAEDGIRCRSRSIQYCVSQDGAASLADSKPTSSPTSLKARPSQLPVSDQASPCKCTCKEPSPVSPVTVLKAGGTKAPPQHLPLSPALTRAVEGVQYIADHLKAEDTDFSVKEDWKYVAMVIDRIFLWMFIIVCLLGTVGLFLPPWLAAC
Chain of Neuronal acetylcholine receptor; alpha4/beta4 (P12392 whole entry): as the sequence (P12392 whole entry) above
T1 sequence (P09483 whole entry): as the sequence (P09483 whole entry) above
T1 sequence (P12390 whole entry): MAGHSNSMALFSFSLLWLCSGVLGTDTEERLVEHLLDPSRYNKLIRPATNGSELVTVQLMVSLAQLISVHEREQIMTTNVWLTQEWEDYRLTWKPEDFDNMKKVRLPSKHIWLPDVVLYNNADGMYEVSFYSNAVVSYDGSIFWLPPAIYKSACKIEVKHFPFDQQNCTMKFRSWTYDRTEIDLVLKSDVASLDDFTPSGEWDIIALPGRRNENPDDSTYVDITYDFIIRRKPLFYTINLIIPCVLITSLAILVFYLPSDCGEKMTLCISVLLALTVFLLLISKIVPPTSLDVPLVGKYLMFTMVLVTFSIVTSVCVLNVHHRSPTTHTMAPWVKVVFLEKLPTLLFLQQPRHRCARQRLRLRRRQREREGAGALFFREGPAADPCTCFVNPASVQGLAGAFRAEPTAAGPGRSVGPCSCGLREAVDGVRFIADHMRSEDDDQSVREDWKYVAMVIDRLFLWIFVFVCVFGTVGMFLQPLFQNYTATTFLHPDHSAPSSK

A word on the Ki: it is the dissociation constant of the complex between target and ligand, obtained from inhibition or displacement. The low end stands for higher affinity, the high end for lower affinity. A word on the IC50: it is the concentration needed to halve the response being measured. For the compound `CO[C@H]1CC=C2CCN3CCC4=C(CC(=O)OC4)[C@]23C1`, the Ki came to 140 nM in assay [1], 0.82 µM in assay [3], 100 µM in assay [4] and 100 µM in assay [5]. This compound had an IC50 in assay [2] of 1.2 µM.
With `CO[C@H]1CC[C@H]2CCN3CCC4=C(CC(=O)OC4)[C@]23C1`, in assay [1], the affinity, expressed as Ki, was 7400 nM.
`CO[C@H]1C=CC2=CCN3CCC4=C(CC(=O)OC4)[C@]23C1` showed a Ki in assay [1] of 1100 nM.
With `CO[C@H]1CC[C@H]2CCN(C)[C@H]2C1` (racemic), the half-inhibitory concentration (IC50) in assay [2] and in assay [6] was > 300 µM each time. For the same compound, the Ki in assay [3] was 300 µM; in assay [4], > 300 µM; in assay [5], > 300 µM.
Turning to `CO[C@H]1CC=C2CCN(C)[C@H]2C1` (racemic), the IC50 in assay [2] is 30 µM; in assay [6], > 300 µM. In addition, the inhibition constant (Ki) in assay [3] is 3.4 µM; in assay [4] it was 100 µM; in assay [5], 100 µM.
Turning to `CO[C@H]1C=CC2=CCN(C)[C@H]2C1` (racemic), the half-maximal inhibitory concentration (IC50) in assay [2] is 100 µM; in assay [6], > 300 µM. In addition, the values for the Ki in assay [3], in assay [4] and in assay [5] were 30 µM, > 300 µM and > 300 µM, respectively.
Turning to `CN1CC[C@@H]2CC[C@H](O)C[C@@H]21` (racemic), the 50% inhibitory concentration (IC50) in assay [2] and in assay [6] was > 300 µM in each case. For the same compound, the inhibition constant (Ki) in assay [3], in assay [4] and in assay [5] was > 300 µM each time.
For `CCO[C@H]1CC[C@H]2CCN(C)[C@H]2C1` (racemic), the IC50 in assay [2] and in assay [6] was > 300 µM each time. Besides, the inhibition constant (Ki) in assay [3] was 300 µM; in assay [4] it was 300 µM; in assay [5] it was > 300 µM.
With `CN1CC[C@@H]2CC[C@H](OCc3ccccc3)C[C@@H]21` (racemic), the half-maximal inhibitory concentration (IC50) in assay [2] and in assay [6] was > 300 µM in each case. The inhibition constant Ki in assay [3] worked out at 100 µM; in assay [4] it was 100 µM; in assay [5], 300 µM.
For the compound `COCCO[C@H]1CC[C@H]2CCN(C)[C@H]2C1` (racemic), the IC50 in assay [2] and in assay [6] was > 300 µM in each case. Besides, the Ki in assay [3] was 300 µM; in assay [4], 300 µM; in assay [5] it was > 300 µM.
`O[C@H]1CC[C@H]2CCN[C@H]2C1` (racemic): the IC50 in assay [2] is > 100 µM; in assay [6], > 300 µM. For the same compound, the Ki in assay [3], in assay [4] and in assay [5] was > 300 µM in each case.
Regarding `CN1CCC2=CC[C@H](O)C[C@@H]21` (racemic), the figures for the IC50 in assay [2] and in assay [6] were > 100 µM and > 300 µM, respectively. In addition, the Ki in assay [3] was 300 µM; in assay [4], > 300 µM; in assay [5] it was > 300 µM.
For the compound `CCO[C@H]1CC=C2CCN(C)[C@H]2C1` (racemic), the IC50 in assay [2] and in assay [6] was > 300 µM throughout. Besides, the Ki was 300 µM in assay [3], > 300 µM in assay [4] and > 300 µM in assay [5].
Turning to `CN1CCC2=CC[C@H](OCc3ccccc3)C[C@@H]21` (racemic), the half-inhibitory concentration (IC50) in assay [2] and in assay [6] was > 300 µM in each case. Besides, the inhibition constant (Ki) in assay [3], in assay [4] and in assay [5] was 300 µM throughout.
Take `COCCO[C@H]1CC=C2CCN(C)[C@H]2C1` (racemic): the IC50 in assay [2] and in assay [6] was > 300 µM each time. Also, the Ki in assay [3], in assay [4] and in assay [5] was > 300 µM each time.
For the compound `O[C@H]1CC=C2CCN[C@H]2C1` (racemic), the half-maximal inhibitory concentration (IC50) in assay [2] and in assay [6] was > 300 µM in each case. Further, the Ki in assay [3], in assay [4] and in assay [5] was > 300 µM each time.
As for `CO[C@H]1CC=C2CCN[C@H]2C1` (racemic), the IC50 is 100 µM in assay [2] and > 300 µM in assay [6]. Besides, the values for the inhibition constant Ki in assay [3], in assay [4] and in assay [5] were 300 µM, > 300 µM and > 300 µM, respectively.
